Measured values published in patent US11931368B2, “Glucocorticoid “nintedanib” particles and their use” (CRITITECH, INC., priority 2017, dated 2024).

Experiments:
[1] = Particle size distribution (volume, laser-light diffraction); type: physicochemical
Description: The particle size of the particles of all aspects disclosed herein can be determined by a particle size analyzer instrument and the measurement is expressed as the mean diameter based on a volume distribution (volume). A suitable particle size analyzer instrument is one which employs the analytical technique of […]. A suitable laser-light diffraction particle size analyzer instrument is the Mastersizer, such as the Mastersizer 3000, available from Malvern Instruments, United Kingdom.

[2] = Specific surface area by BET isotherm; type: physicochemical
Method: As used herein, the “specific surface area” (SSA) is the total surface area of the particle per unit of compound mass as measured by the Brunauer-Emmett-Teller (“BET”) isotherm by the following method: a known mass between 200 and 300 mg of the analyte is added to a 30 mL sample tube. The loaded tube is then mounted to a Porous Materials Inc. SORPTOMETER®, model BET-202A. The automated test is then carried out using the BETWIN® software package and the surface area of each sample is subsequently calculated. Such an increase in SSA results in significant increases in dissolution rates in relevant media as compared to therapeutic particles produced by conventional means. The “therapeutic particles” can include both agglomerated therapeutic particles and non-agglomerated therapeutic particles; since the SSA is determined on a per gram basis it takes into account both agglomerated and non-agglomerated therapeutic particles in the composition. The BET specific surface area test procedure is a compendial method included in both the United States Pharmaceopeia and the European Pharmaceopeia.

Dv10 [1] [μm] | Dv50 [1] [μm] | Dv90 [1] [μm] | SSA (specific surface area) [2] [m^2/g] | Structure (SMILES)
10.9 | 39.0 | 74.4 | 4.11 | CCC(=O)O[C@]1(C(=O)SCF)[C@H](C)C[C@H]2[C@@H]3C[C@H](F)C4=CC(=O)C=C[C@]4(C)[C@@]3(F)[C@@H](O)C[C@@]21C [Raw fluticasone, fluticasone propionate]
10.5 | 36.8 | 70.2 | 4.11 | COC(=O)c1ccc2c(c1)NC(=O)/C2=C(\Nc1ccc(N(C)C(=O)CN2CCN(C)CC2)cc1)c1ccccc1 [Raw nintedanib, nintedanib]
